Laboratory results as given in US5811073A, “Method for radioisotopic detection and localization of inflammation in a host” (President and Fellows of Harvard College, priority 1995, dated 1998).

System: bacterial (E. coli) inflammatory lesions (pus capsule)
Experiment: Biodistribution (pus capsule to contralateral tissue ratio) in rats with bacterial infection
Format: in vivo
Details: for Pus Capsule and Contralateral Tissue (T/B) Ratio, biodistribution: i.v., 10 μCi/rat ^67 Ga (n=2), 5 μCi/rat ^125 IUdR (n=5), mean ± SD
Experimental: A frozen sample of E. coli bacteria (clinical isolate; ATCC 9339) was used to inoculate a 10 ml trypticase soy medium (trypticase soy broth, BBL #11768, 30 g/L water), and the tube was incubated overnight at […] This culture was used to grow single colonies by streaking the sample on agar plates (100 mm petri dishes each containing 15 ml of […] in the same medium). Good colonies develop in 10-11 hours at 37° C. The agar plates containing bacterial colonies were stored upside down at 4° C. A single colony of bacteria from the agar plate was used to inoculate 10 ml trypticase soy medium, and the tube was incubated overnight at 37° C. with vigorous shaking. Two ml of this overnight culture was transferred into 100 ml trypticase soy medium and the sample incubated at 37° C. with vigorous shaking until the culture reached an OD600 of ~0.8 (in about 2 hrs). This 100 ml culture contained ~6.4×10^10 bacterial cells (1 OD600 =8×10^8 cells/ml).
The culture was centrifuged at 5500 rpm for 5 min at 4° C. in a Sorvall SS-34 rotor, the bacterial pellet resuspended in saline to give ~2.5×10^9 bacteria/ml, and 0.1 ml of resuspended cells injected into the left thigh muscle of each anesthetized rat.
No-carrier added radioiodinated deoxyuridine (^125 IUdR) was synthesized by the method described in the above disclosure. Commercially available gallium-67 citrate of known biodistribution characteristics was obtained, for comparison to ^125 IUdR. 24 hrs after each rat described in Example 2 received an intramuscular injection of E. coli or after each rat described in Example 1 received an intramuscular injection of turpentine oil (to permit comparison of activity in a bacterial inflammation lesions to activity in a sterile inflammation lesions) in the left rear thigh, each rat received either ^125 IUdR (about 5 μCi/rat) or gallium-67 citrate (about 10 μCi/rat) suspended in 0.1 ml saline, by injection into the tail vein.
At one, three and 24 hrs after ^125 IUdR or gallium-67 citrate administration, the animals from each group were anesthetized, blood collected via cardiac puncture, urine aspirated from the urinary bladder, and the rats humanely sacrificed. The biodistribution of each radiopharmaceutical (measured as a function of the % injected dose/gram body weight) was then determined in various normal tissues and organs, as well as the left and right legs, the pus capsule formed within the leg and in contralateral muscle tissues (i.e., background tissues unaffected by inflammation) of equivalent weight.
To determine the distribution of each radiopharmaceutical in various tissues of each rat (i.e., the "biodistribution" of each radiopharmaceutical), samples of background tissues and organs (blood, lung, liver, spleen, kidney, muscle and intestine), of target tissue (the pus capsule formed in the leg) and of contralateral muscle tissue (background tissue adjacent to target tissue) were obtained from each rat and weighed. Radioactivity in each sample was measured in a well-type gamma counter (from LKB, Wallac Oy, Finland). To correct for radioactive decay and permit calculation of activity in each organ or tissue as a fraction of the injected dosage of radiopharmaceutical, aliquots of the injected doses were counted at the same time that radioactivity in each sample was determined. The results were measured as a function of the percentage of injected dose/gram (% ID/g). For further reference regarding measurements of biodistribution of radiopharmaceuticals, particularly in blood, those of ordinary skill in the art may wish to refer to Baker et al., "The Laboratory Rat" (Acad.Press N.Y., 1980).
Ab = %ID/g over contralateral muscle

Structure (SMILES): O=C([O-])CC(O)(CC(=O)[O-])C(=O)[O-].[67Ga+3] [^67 Ga, gallium-67 citrate]
- concentration within lesion (pus capsule) vs contralateral tissues (in words) (bacterial (E. coli) inflammation): to a greater extent than in the contralateral tissues
- Pus Capsule and Contralateral Tissue (T/B) Ratio, biodistribution (bacterial infection, 3 h): 3.21 ± 0.13
- Pus Capsule and Contralateral Tissue (T/B) Ratio, biodistribution (bacterial infection, 24 h): 4.07 ± 1.09
- time of accumulation at the site of inflammation (in words) (bacterial infection, FIGS. 1 and 5): did not accumulate at the site of inflammation until several hours after its administration
